# From patent publication US10399968B2, “Hydroxyalkyl thiadiazole derivatives” (Daiichi Sankyo Company, Limited, priority 2015, dated 2019)
# pIC50: −log10 of the molar value. Like-named read-outs stand apart in the source and are kept apart here.
# Legend:
# [1] = test system: Clostridium difficile ATCC 43255; experiment: Susceptibility of Clostridium difficile, agar dilution MIC; type: cell-based; conditions: Clostridioides difficile, ATCC43255, anaerobic
# Description: The antibacterial activity of the compounds of the present invention against Clostridium difficile clinical isolates was tested by the agar dilution method. The assay was carried out according to the CLSI guidelines for managing the procedures of susceptibility tests “M11-A8, Methods for Antimicrobial Susceptibility Testing of Anaerobic Bacteria; Approved Standard-Eighth Edition. CLSI document (2012)”.
# The test strains were spread on supplemented Brucella agar (SBA) plates and grown at 36° C. under anaerobic condition for 42 to 48 hours. The test compound dilutions were prepared with Brucella broth and SBA plates containing dilution of test compound were prepared. As an anaerobic growth control, plates not containing the test compound were also prepared. Colonies grown on plates were suspended with Brucella broth to adjust the turbidity to 0.5 McFarland using a densitometer. Suspension (1-2 μL) of the test strains was inoculated onto each agar surface by using a bacterial suspension inoculation apparatus. After anaerobic incubation at 36° C. for 42 to 48 hours, absence and presence of growth of each strain were examined with unaided eye. The MIC was determined at which a marked reduction occurs in the appearance of growth on the test plate as compared to that of growth on the anaerobic control plates.
# [2] = Oral bioavailability (BA) in monkeys; type: in vivo, Macaca fascicularis; conditions: male, cynomolgus monkey, blood, 1 mg/kg oral vs jugular vein
# Description: To male Macaca fascicularis (3 or 4 year-old) fasted overnight, a solution of the test compound Captisol® was administered into the jugular vein (3 animals) and a solution of Lutrol® F68 was orally administered (3 animals). The dose of both test compounds was 1 mg/kg body weight of the monkey. The amount of Captisol® used was 0.18 mg/kg body weight of the monkey. The amount of Lutrol® F68 used was 0.02 mg/kg body weight of the monkey. The BA value was calculated by the formula below using the integration value (AUCiv(0-∞)) of the blood concentration extrapolated from time 0 to infinity after administration of both test compounds. BA(%)=[[(AUCpo(0-∞))/(dose po)]/[(AUCiv(0-∞))/(dose iv)]]×100 The greater a BA value of the compound shown, the higher the oral bioavailability is.
# [3] = test system: S. aureus ATCC 29213; experiment: Susceptibility of bacteria, broth microdilution MIC; type: cell-based; conditions: Staphylococcus aureus, ATCC29213
# Description: The antibacterial activity of the compounds of the present invention was tested by the broth microdilution method. The assay was carried out according to the CLSI guidelines for managing the procedures of susceptibility tests: “M7-A7 Methods for Dilution Antimicrobial Susceptibility Tests for Bacteria That Grow Aerobically; Approved Standard-Seventh Edition (2006)”. Test strains were grown on appropriate agar plates overnight. A broth containing the test compound diluted serially 2-fold and diluents were dispensed at 100 μL to each well of a 96-well microplate. As a growth control, a well with a broth not containing the test compound was also prepared. Colonies grown on the plates were suspended in saline, adjusted to 0.5 McFarland (OD625=0.08 to 0.10) using a colorimeter, and then diluted 10-fold with saline. The bacterial suspension was inoculated at 4 μL into each well of the microplate using a bacterial suspension inoculation apparatus. The inoculated microplate was incubated at 35° C. overnight (about 20 hours). The growth condition was observed by the naked eye, and the minimum concentration to inhibit bacterial proliferation was defined as a minimum inhibitory concentration (MIC). The MICs of compounds disclosed herein for E. faecium, Streptococcus pneumoniae and Haemophilus influenzae are shown in Table 2, while for S. aureus in Table 3.
# [4] = biological target: Clostridium difficile DNA gyrase (Clostridioides difficile, UniProt Q18C89); experiment: DNA supercoiling inhibition assay; type: biochemical; conditions: supercoiling of relaxed pBR322 DNA, 60 minutes at 37° C.
# Sequence of Clostridium difficile DNA gyrase (Q18C90 entry or part of it): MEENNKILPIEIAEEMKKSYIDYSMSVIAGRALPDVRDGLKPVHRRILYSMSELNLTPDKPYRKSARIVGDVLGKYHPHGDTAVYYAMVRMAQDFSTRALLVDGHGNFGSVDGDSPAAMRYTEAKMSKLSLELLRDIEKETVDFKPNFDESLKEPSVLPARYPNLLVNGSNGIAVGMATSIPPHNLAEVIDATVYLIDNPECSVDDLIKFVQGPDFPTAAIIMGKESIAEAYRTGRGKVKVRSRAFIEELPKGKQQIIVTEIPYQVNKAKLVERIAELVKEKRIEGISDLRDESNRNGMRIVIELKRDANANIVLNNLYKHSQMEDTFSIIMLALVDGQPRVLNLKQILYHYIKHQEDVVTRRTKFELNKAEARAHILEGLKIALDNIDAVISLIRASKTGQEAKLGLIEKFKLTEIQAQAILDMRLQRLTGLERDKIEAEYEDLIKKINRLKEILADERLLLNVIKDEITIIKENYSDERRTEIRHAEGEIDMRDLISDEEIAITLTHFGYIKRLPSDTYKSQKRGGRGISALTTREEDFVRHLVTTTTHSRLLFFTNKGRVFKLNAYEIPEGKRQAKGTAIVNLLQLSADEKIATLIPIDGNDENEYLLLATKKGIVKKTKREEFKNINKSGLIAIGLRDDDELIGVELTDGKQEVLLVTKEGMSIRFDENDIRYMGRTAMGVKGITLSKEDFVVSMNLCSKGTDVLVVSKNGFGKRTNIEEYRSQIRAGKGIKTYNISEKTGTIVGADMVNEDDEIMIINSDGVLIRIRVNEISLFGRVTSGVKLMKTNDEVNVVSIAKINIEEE
# Sequence of Clostridium difficile DNA gyrase (Q18C89 entry or part of it): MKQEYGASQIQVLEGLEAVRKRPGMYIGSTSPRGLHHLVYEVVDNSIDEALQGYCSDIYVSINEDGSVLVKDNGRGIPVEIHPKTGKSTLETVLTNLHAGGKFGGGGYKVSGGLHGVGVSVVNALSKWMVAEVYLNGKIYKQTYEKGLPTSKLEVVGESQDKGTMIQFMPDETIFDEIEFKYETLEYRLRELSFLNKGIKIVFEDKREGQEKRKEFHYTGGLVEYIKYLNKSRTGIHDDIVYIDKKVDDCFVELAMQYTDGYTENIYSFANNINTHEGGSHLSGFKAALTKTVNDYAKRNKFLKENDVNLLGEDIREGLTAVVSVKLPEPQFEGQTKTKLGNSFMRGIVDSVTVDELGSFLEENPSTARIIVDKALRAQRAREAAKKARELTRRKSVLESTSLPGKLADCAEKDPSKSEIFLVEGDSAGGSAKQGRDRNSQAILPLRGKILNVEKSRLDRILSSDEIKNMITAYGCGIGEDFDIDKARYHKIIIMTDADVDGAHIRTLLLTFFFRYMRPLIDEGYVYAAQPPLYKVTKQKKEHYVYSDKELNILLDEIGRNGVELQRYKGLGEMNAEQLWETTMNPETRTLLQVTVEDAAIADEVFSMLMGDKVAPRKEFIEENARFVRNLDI
# Description: DNA supercoiling assays (30 μL reaction) were performed in a buffer containing 15 mM Tris-HCl pH 7.5, 13% glycerol, 6 mM MgCl2, 0.1 mg/mL BSA, 70 mM KCl, 1 mM dithioerythritol, 400 ng of DNA substrate (relaxed pBR322 DNA) and different concentrations of test compounds and/or standards. The dilutions of test compounds and standards were prepared in 20% dimethylsulfoxide (DMSO) and added 3 μL/reaction. The reaction was started by adding 2 μL amounts of Clostridium difficile DNA gyrase into the reaction mixtures and reactions were allowed to proceed for 60 minutes at 37° C. A reaction was carried out by adding 3 μL of 20% DMSO instead of test compound as full reaction control, and another reaction was carried out by adding sterile water instead of the enzyme as no reaction control.
# Reactions were stopped by the addition of 5 μL of 6×loading dye and were analyzed by electrophoresis through 1.0% agarose gels with 1×TAE running buffer. Gels were run at 60 V for 3 hours, stained with EtBr, and visualized by Gel Doc system (BioRad). Intensity of the supercoiled DNA bands was quantified, and the IC50 of Clostridium difficile DNA gyrase was calculated using Graph Pad Prism.
# [5] = test system: E. faecium ATCC 29212; experiment: Susceptibility of bacteria, broth microdilution MIC; type: cell-based; conditions: Enterococcus faecium, ATCC29212
# Description: (§1) The antibacterial activity of the compounds of the present invention was tested by the broth microdilution method. The assay was carried out according to the CLSI guidelines for managing the procedures of susceptibility tests: “M7-A7 Methods for Dilution Antimicrobial Susceptibility Tests for Bacteria That Grow Aerobically; Approved Standard-Seventh Edition (2006)”. Test strains were grown on appropriate agar plates overnight. A broth containing the test compound diluted serially 2-fold and diluents were dispensed at 100 μL to each well of a 96-well microplate. As a growth control, a well with a broth not containing the test compound was also prepared. Colonies grown on the plates were suspended in saline, adjusted to 0.5 McFarland (OD625=0.08 to 0.10) using a colorimeter, and then diluted 10-fold with saline. The bacterial suspension was inoculated at 4 μL into each well of the microplate using a bacterial suspension inoculation apparatus. The inoculated microplate was incubated at 35° C. overnight (about 20 hours). The growth condition was observed by the naked eye, and the minimum concentration to inhibit bacterial proliferation was defined as a minimum inhibitory concentration (MIC).
# [6] = test system: Streptococcus pneumoniae ATCC 49619; experiment: as above; type: cell-based; conditions: ATCC49619
# Description: as §1
# [7] = test system: Haemophilus influenzae ATCC 49247; experiment: as above; type: cell-based; conditions: ATCC49247
# Description: as §1
# [8] = Solubility in water (JP1 / JP2 fluids); type: physicochemical; conditions: thermodynamic from solid
# Description: A 10 mmol/L solution of the test compound was prepared in DMSO and dispensed 100 μL of 10 mmol/L DMSO stock solutions into labeled glass tubes in duplicate, one for Japanese Pharmacopeia First Fluid (JP1) and second for Japanese Pharmacopeia Second Fluid (JP2). After evaporation of DMSO from each tube, 500 μL of JP1 and JP2 fluid were added in each tube, respectively. These tubes were sonicated for 1 minute and placed on shaker for 30 minutes with an interval of 30 seconds at every 5 minute. Tubes were placed in dark at room temperature for 1 hour and solution was filtered through membrane filter. The filtrate was diluted 2-fold and 10-fold. The resulting test solutions was analyzed and quantified against the standards using UPLC (standard preparation—10 mmol/L solution in DMSO is serially diluted with 50% aqueous acetonitrile solution to prepare 2 solutions; 100 μmol/L standard solution and 5 μmol/L standard solutions).
# [9] = test system: Staphylococcus aureus; experiment: Neutropenic mouse thigh or calf muscle infection model; type: in vivo; conditions: neutropenic mice, compared with linezolid
# Source text: After culture in broth medium (i) suitable diluent of a bacterial suspension of the Staphylococcus aureus strain, or (ii) equivalent mixture of suitable diluent of a bacterial suspension of the Enterococcus faecium strain and a 10% mucin suspension were used as the inoculum. The bacterial suspension was inoculated under anesthesia with a ketamine-xylazine mixture into the thigh or calf muscle of Swiss albino mice or ICR mice (4- to 6-week-old) compromised by the cyclophosphamide administration. The drug was administered to the mice 1 to 8 times at an interval of 3 to 24 hours. The number of bacteria in the thigh or calf muscle was counted for the non-treated group immediately before initial administration of the drug (pre-control), for the non-treated group (post-control) and for the drug-administered group on the next day of administration of the drug and infection. A change in the number of bacteria in the thigh or calf muscle was used as an index of therapeutic effect.
# [10] = Oral bioavailability (BA) in rats; type: in vivo; conditions: male, SD, blood; Rat, 2 mg/kg oral vs jugular vein
# Description: To SD male rats (7 week-old) fasted overnight, a solution of the test compound Captisol® was administered into the jugular vein (3 animals) and a solution of Lutrol® F68 was administered orally (3 animals). The dose of the test compounds was 2 mg/kg body weight of the rat for both administration routes. The amount of Captisol® used was 0.36 mg/kg body weight of the rat. The amount of Lutrol® F68 used was 0.02 mg/kg body weight of the rat. The BA value was calculated by the formula below using the integration value (AUCiv(0-∞)) of the blood concentration extrapolated from time 0 to infinity after administration of both test compounds. The greater a BA value of the compound shown, the higher the oral bioavailability is.
# [11] = Change of weight when relative humidity varied stepwise; type: physicochemical
# Description: The Form I thus obtained was characterized by i) the diffraction pattern obtained from powder X-ray diffraction analysis (CuK, λ=1.54 Å, scan rate=20°/min) (FIG. 2) and ii) the thermogravimetric analysis pattern (TG/DTA pattern) obtained from measurement of sample (3 mg) at heating rate of about 10° C./minute (FIG. 3). […] Further, the pattern of change of weight of the sample was shown (FIG. 4), which was observed when relative humidity was varied stepwise.
# The thermogravimetric analysis pattern (TG/DTA pattern) obtained from measurement of sample (3 mg) at heating rate of about 10° C./minute is as depicted in FIG. 6. […] Further, the pattern of change of weight of the sample was shown in FIG. 7, which was observed when relative humidity was varied stepwise.
smiles,measurement,setting,value
"CCc1[nH]c(C(=O)N[C@@H]2CCN(c3nnc([C@@H](C)O)s3)C[C@@H]2OC)nc1Cl (single isomer, unassigned) [Compound No. 4]",MIC,[1],0.06 µg/mL
same,bioavailability,[2],92%
same,MIC,[3],0.5 µg/mL
same,pIC50,[4],7.84
same,MIC,[5],0.25 µg/mL
same,MIC,[6],0.25 µg/mL
same,MIC,[7],1 µg/mL
same,solubility at 30 min,"[8]; Japanese Pharmacopeia First Fluid (JP1), pH 1.2, simulated gastric fluid, read-out: Solubility JP1",612 µg/mL
same,solubility at 30 min,"[8]; Japanese Pharmacopeia Second Fluid (JP2), pH 6.8, aqueous buffer, read-out: Solubility JP2",304 µg/mL
same,therapeutic effect against Staphylococcus aureus (number of bacteria in thigh or calf muscle),[9],equivalent to or higher than linezolid
"CCc1[nH]c(C(=O)N[C@@H]2CCN(c3nnc(C(C)O)s3)C[C@@H]2OC)nc1Cl (mixture of isomers) [Compound No. 3, 4-Chloro-5-ethyl-N-{(3S,4R)-1-[5-(1-hydroxyethyl)-1,3,4-thiadiazol-2-yl]-3-methoxypiperidin-4-yl}-1H-imidazole-2-carboxamide]",MIC,[1],0.125 µg/mL
same,bioavailability,[2],100%
same,MIC,[3],0.5 µg/mL
same,bioavailability,[10],51%
"CCc1[nH]c(C(=O)N[C@@H]2CCN(c3nnc(C(C)(C)O)s3)C[C@@H]2OC)nc1Cl [Form II, 4-chloro-5-ethyl-N-{(3S,4R)-1-[5-(2-hydroxypropan-2-yl)-1,3,4-thiadiazol-2-yl]-3-methoxypiperidin-4-yl}-1H-imidazole-2-carboxamide]",weight change due absorption or desorption of moisture,[11],no weight change
"CCc1[nH]c(C(=O)N[C@@H]2CCN(c3nnc(C(C)(C)O)s3)C[C@@H]2OC)nc1Cl [Form I, 4-chloro-5-ethyl-N-{(3S,4R)-1-[5-(2-hydroxypropan-2-yl)-1,3,4-thiadiazol-2-yl]-3-methoxypiperidin-4-yl}-1H-imidazole-2-carboxamide]",change of weight,[11],≤ 0.3%
